Measured values: patent publication US8765779B2, “Tricyclic derivatives and their pharmaceutical use and compositions” (Cephalon, Inc., priority 2009, dated 2014)
Counter-ions that a name gives are not always drawn. Like-named read-outs stand apart in the source and are kept apart here.

Assays:
human 5-HT6 receptor = biological target: T1, human 5-HT6 receptor (Homo sapiens, UniProt P50406); assay: Human 5-HT6 Receptor Binding Assay ([3H]LSD displacement, scintillation beads); conditions: membranes of CHO-K1 cells with recombinant human 5-HT6, 4 nM [3H]LSD, read-out: h5-HT6 (Ki)
T1 construct: host or cells: CHO-K1 cells, stably transfected; membranes prepared in house
T1 sequence (P50406 whole entry): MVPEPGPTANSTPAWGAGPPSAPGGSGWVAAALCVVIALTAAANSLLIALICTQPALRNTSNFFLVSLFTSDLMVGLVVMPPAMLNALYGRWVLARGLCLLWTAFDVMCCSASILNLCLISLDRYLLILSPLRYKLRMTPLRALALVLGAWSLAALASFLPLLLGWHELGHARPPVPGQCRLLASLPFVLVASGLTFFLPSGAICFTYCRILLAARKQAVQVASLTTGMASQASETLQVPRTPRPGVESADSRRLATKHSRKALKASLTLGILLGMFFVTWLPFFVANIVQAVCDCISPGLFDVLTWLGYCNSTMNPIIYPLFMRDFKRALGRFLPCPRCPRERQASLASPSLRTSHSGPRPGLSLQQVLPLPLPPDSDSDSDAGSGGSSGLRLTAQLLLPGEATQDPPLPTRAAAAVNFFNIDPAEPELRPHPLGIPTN

Row | Compound | Ki (human 5-HT6 receptor; Table 1, class symbols) [nM] | melting point | Ki (human 5-HT6 receptor; specific data) [nM]
1 | COc1cc(OC(C)C)cc(S(=O)(=O)c2ccc3c4c(oc3c2)CNCC4(C)C)c1 [Example 85] | < 500 | 246 to 247 °C | –
2 | CC12CCNCC1Oc1ccc(S(=O)(=O)c3ccccc3CO)cc12 (stereo not shown) [Example 97] | > 1000 | 204 to 206 °C | –
3 | CC1(CN)NCCc2c1oc1cc(S(=O)(=O)c3cccc(F)c3)ccc21 (stereo not shown) [Example 493, 1-{7-[(3-Fluorophenyl)sulfonyl]-1-methyl-1,2,3,4-tetrahydro[1]benzofuro[2,3-c]pyridin-1-yl}methanamine] | < 500 | > 250 °C (dec.) | –
4 | CC(=O)NCC1(C)NCCc2c1oc1cc(S(=O)(=O)c3cccc(F)c3)ccc21 (stereo not shown) [Example 492, N-({7-[(3-fluorophenyl)sulfonyl]-1-methyl-1,2,3,4-tetrahydro[1]benzofuro[2,3-c]pyridin-1-yl}methyl)acetamide] | < 500 | 140 to 155 °C (dec.) | –
5 | C[C@@H]1CCCN1CCCOc1cc(F)cc(S(=O)(=O)c2ccc3c(c2)OC2CNCCC32)c1 (single isomer, unassigned) [Example 626] | > 1000 | 208 to 212 °C | –
6 | Cn1ccc2cccc(S(=O)(=O)c3ccc4c5c(oc4c3)CNCC5)c21 [Example 84] | < 500 | 224 to 225 °C | –
7 | O=S(=O)(c1cc(F)cc(F)c1)c1ccc2c3c(oc2c1)C1(CCCOC1)NCC3 (racemic) [Example 24, 7-[(3,5-difluorophenyl)sulfonyl]-3,4,5′,6′-tetrahydro-2H,4′H-spiro[1-benzofuro[2,3-c]pyridine-1,3′-pyran]] | < 500 | 85 to 95 °C | –
8 | CC12CCNCC1Oc1ccc(S(=O)(=O)c3cccc(Cl)c3Cl)cc12 (stereo not shown) [Example 106] | < 500 | 244 to 246 °C | –
9 | CC12CCNCC1Oc1ccc(S(=O)(=O)c3cccc(Cl)c3Cl)cc12 (stereo not shown) [Example 101] | < 500 | 210 to 212 °C | –
10 | Cn1ccc2c(S(=O)(=O)c3ccc4c(c3)OC3CNCCC43)cccc21 (stereo not shown) [Example 68] | < 500 | 164 to 165 °C | –
11 | COc1cc2c(cc1S(=O)(=O)c1cccc(F)c1)C1CCNCC1O2 (stereo not shown) [Example 89] | < 500 | 197 to 204 °C | –
12 | O=S(=O)(c1ccc2c3c(oc2c1)C1(CCOC1)NCC3)c1cccc(F)c1F (single isomer, unassigned; enantiomer 1) [Example 473, 7-[(2,3-Difluorophenyl)sulfonyl]-3,4,4′,5-tetrahydro-2H-spiro[1-benzofuro[2,3-c]pyridine-1,3′-furan], enantiomer 1] | < 500 | 269 to 272 °C | –
13 | CC12CCNCC1Oc1ccc(S(=O)(=O)c3ccc(F)cc3F)cc12 (stereo not shown) [Example 93] | 500 to 1000 | 215 to 216 °C | –
14 | CC(=O)Nc1cccc(S(=O)(=O)c2ccc3c(c2)OC2CNCCC32)c1 (stereo not shown) [Example 73] | < 500 | 228 to 229 °C | –
15 | CC12CCNCC1Oc1ccc(S(=O)(=O)c3ccccc3F)cc12 (stereo not shown) [Example 99, 6-[(2-fluorophenyl)sulfonyl]-4a-methyl-1,2,3,4,4a,9a-hexahydro[1]benzofuro[2,3-c]pyridine] | < 500 | 260 to 262 °C | 243
16 | Cc1c(Cl)cccc1S(=O)(=O)c1ccc2c(c1)OC1CNCCC21 (stereo not shown) [Example 66] | < 500 | 188 to 189 °C | –
17 | COc1ccc(Cl)cc1S(=O)(=O)c1ccc2c3c(oc2c1)CNCC3 [Example 80] | < 500 | 258 to 259 °C | –
18 | N#Cc1ccc(COc2cccc(S(=O)(=O)c3ccc4c(c3)OC3CNCCC43)c2)cc1 (stereo not shown) (as salt: HCl) [Example 551] | – | 203 to 204 °C | –
19 | CN(C)C(=O)c1cccc(S(=O)(=O)c2ccc3c4c(oc3c2)CNCC4)c1 (as salt: hydrochloride) [Example 474, N,N-Dimethyl-3-(1,2,3,4-tetrahydro[1]benzofuro[2,3-c]pyridin-7-ylsulfonyl)benzamide hydrochloride] | – | 262 to 265 °C | –
